Assay results from ChEMBL document CHEMBL3044789, “Comparing weed and crop seedling response to pre-emergence pendimethalin application in Corchorus olitorius and Abelmoschus esculentus” (Crop Prot, 2006).

How the values were obtained:
Calopogonium mucunoides [1] = assay: Herbicidal activity against Calopogonium mucunoides in Abelmoschus esculentus plots assessed as weed recovery at 0.33 kg a.i/ha after 2 weeks (reference value: 60.1 +/- 0.46 %); format: functional
Corchorus olitorius [2] = assay: Phytotoxicity in Corchorus olitorius assessed as crop seedling injury at 0.66 kg a.i/ha after 2 weeks relative to untreated control; format: organism-based; settings: in vivo, 336 h
Abelmoschus esculentus [3] = assay: Phytotoxicity in Abelmoschus esculentus assessed as crop seedling injury at 0.66 kg a.i/ha after 2 weeks relative to untreated control; format: organism-based; settings: in vivo, 336 h
Ageratum conyzoides [4] = assay: Herbicidal activity against Ageratum conyzoides in Abelmoschus esculentus plots assessed as weed recovery at 0.33 kg a.i/ha after 2 weeks (reference value: 60.1 +/- 0.46 %); format: functional
Euphorbia heterophylla [5] = assay: Herbicidal activity against Euphorbia heterophylla in Corchorus olitorius plots assessed as weed cover at 0.99 kg a.i/ha after 2 weeks (reference value: 81.7 +/- 0.43 %); format: functional
Abelmoschus esculentus [6] = assay: Phytotoxicity in Abelmoschus esculentus assessed as seedling injury at 0.66 kg a.i/ha applied as solution after 7 weeks relative to control; format: organism-based; settings: in vivo, other, 1176 h
Abelmoschus esculentus [7] = assay: Phytotoxicity in Abelmoschus esculentus assessed as crop seedling injury at 0.33 kg a.i/ha after 2 weeks relative to untreated control; format: organism-based; settings: in vivo, 336 h
Corchorus olitorius [8] = assay: Phytotoxicity in Corchorus olitorius assessed as seed germination at 0.66 kg a.i/ha applied as solution after 7 weeks relative to untreated control; format: organism-based; settings: in vivo, other, 1176 h
Euphorbia heterophylla [9] = assay: Herbicidal activity against Euphorbia heterophylla in Abelmoschus esculentus plots assessed as weed recovery at 0.66 kg a.i/ha after 2 weeks (reference value: 60.1 +/- 0.46 %); format: functional
Calopogonium mucunoides [10] = assay: Herbicidal activity against Calopogonium mucunoides in Corchorus olitorius plots assessed as weed cover at 0.33 kg a.i/ha after 7 weeks (reference value: 1.7 +/- 0.56 %); format: functional
Ageratum conyzoides [11] = assay: Herbicidal activity against Ageratum conyzoides in Abelmoschus esculentus plots assessed as major weed growth at 0.33 kg a.i/ha after 2 weeks; format: functional
Euphorbia heterophylla [12] = assay: Herbicidal activity against Euphorbia heterophylla in Abelmoschus esculentus plots assessed as weed cover at 0.99 kg a.i/ha after 2 weeks (reference value: 63.5 +/- 0.29 %); format: functional
Calopogonium mucunoides [13] = assay: Herbicidal activity against Calopogonium mucunoides in Abelmoschus esculentus plots assessed as weed cover at 1.32 kg a.i/ha after 7 weeks (reference value: 14.7 +/- 0.46 %); format: functional
Commelina diffusa [14] = assay: Herbicidal activity against Commelina diffusa in Corchorus olitorius plots assessed as weed cover at 0.66 kg a.i/ha after 4 weeks (reference value: 20.1+/- 0.57 %); format: functional
Synedrella nodiflora [15] = assay: Herbicidal activity against Synedrella nodiflora in Abelmoschus esculentus plots assessed as weed cover at 0.99 kg a.i/ha after 4 weeks (reference value: 22.6 +/- 0.49 %); format: functional
[16] = test system: Rottboellia cochinchinensis; assay: Herbicidal activity against Rottboellia cochinchinensis in Corchorus olitorius plots assessed as weed recovery at 0.33 kg a.i/ha after 2 weeks (reference value: 78.3 +/- 0.74 %); format: functional
Calopogonium mucunoides [17] = assay: Herbicidal activity against Calopogonium mucunoides in Corchorus olitorius plots assessed as major weed growth at 0.99 kg a.i/ha after 2 weeks; format: functional
Talinum fruticosum = assay: Herbicidal activity against Talinum fruticosum in Abelmoschus esculentus plots assessed as minor weed growth at 0.99 kg a.i/ha after 2 weeks; format: functional
Synedrella nodiflora [18] = assay: Herbicidal activity against Synedrella nodiflora in Abelmoschus esculentus plots assessed as weed recovery at 0.33 kg a.i/ha after 2 weeks (reference value: 60.1 +/- 0.46 %); format: functional
Asteraceae = assay: Herbicidal activity against Aspilia africana in Corchorus olitorius plots assessed as weed cover at 0.66 kg a.i/ha after 7 weeks (reference value: 1.7 +/- 0.56 %); format: functional
Abelmoschus esculentus [19] = assay: Phytotoxicity in Abelmoschus esculentus assessed as shoot length at 1.32 kg a.i/ha treated to soil after 7 weeks (reference value: 8.5 +/- 0.34 mm); format: organism-based; settings: in vivo, other, 1176 h
Ageratum conyzoides [20] = assay: Herbicidal activity against Ageratum conyzoides in Corchorus olitorius plots assessed as weed recovery at 1.32 kg a.i/ha after 2 weeks (reference value: 78.3 +/- 0.74 %); format: functional
Ageratum conyzoides [21] = assay: Herbicidal activity against Ageratum conyzoides in Corchorus olitorius plots assessed as weed cover at 0.33 kg a.i/ha after 7 weeks (reference value: 1.7 +/- 0.56 %); format: functional
Synedrella nodiflora [22] = assay: Herbicidal activity against Synedrella nodiflora in Abelmoschus esculentus plots assessed as weed cover at 0.33 kg a.i/ha after 7 weeks (reference value: 14.7 +/- 0.46 %); format: functional
Commelina diffusa [23] = assay: Herbicidal activity against Commelina diffusa in Abelmoschus esculentus plots assessed as weed cover at 0.66 kg a.i/ha after 2 weeks (reference value: 63.5 +/- 0.29 %); format: functional
Cyperus rotundus [24] = assay: Herbicidal activity against Cyperus rotundus in Abelmoschus esculentus plots assessed as weed cover at 0.66 kg a.i/ha after 4 weeks (reference value: 22.6 +/- 0.49 %); format: functional
Cyperus rotundus [25] = assay: Herbicidal activity against Cyperus rotundus in Corchorus olitorius plots assessed as weed cover at 0.66 kg a.i/ha after 7 weeks (reference value: 1.7 +/- 0.56 %); format: functional
Calopogonium mucunoides [26] = assay: Herbicidal activity against Calopogonium mucunoides in Abelmoschus esculentus plots assessed as minor weed growth at 0.66 kg a.i/ha after 2 weeks; format: functional
Euphorbia heterophylla [27] = assay: Herbicidal activity against Euphorbia heterophylla in Abelmoschus esculentus plots assessed as major weed growth at 0.66 kg a.i/ha after 2 weeks; format: functional
Synedrella nodiflora [28] = assay: Herbicidal activity against Synedrella nodiflora in Abelmoschus esculentus plots assessed as weed recovery at 0.99 kg a.i/ha after 2 weeks (reference value: 60.1 +/- 0.46 %); format: functional
Calopogonium mucunoides [29] = assay: Herbicidal activity against Calopogonium mucunoides in Corchorus olitorius plots assessed as weed cover at 0.66 kg a.i/ha after 4 weeks (reference value: 20.1+/- 0.57 %); format: functional
Calopogonium mucunoides [30] = assay: Herbicidal activity against Calopogonium mucunoides in Corchorus olitorius plots assessed as minor weed growth at 0.66 kg a.i/ha after 2 weeks; format: functional
Mimosa pudica = assay: Herbicidal activity against Mimosa pudica in Abelmoschus esculentus plots assessed as weed cover at 0.33 kg a.i/ha after 2 weeks (reference value: 63.5 +/- 0.29 %); format: functional
Chromolaena odorata = assay: Herbicidal activity against Chromolaena odorata in Corchorus olitorius plots assessed as weed cover at 1.32 kg a.i/ha after 4 weeks (reference value: 20.1+/- 0.57 %); format: functional
[31] = test system: Rottboellia cochinchinensis; assay: Herbicidal activity against Rottboellia cochinchinensis in Abelmoschus esculentus plots assessed as weed cover at 0.33 kg a.i/ha after 2 weeks (reference value: 63.5 +/- 0.29 %); format: functional
[32] = test system: Rottboellia cochinchinensis; assay: Herbicidal activity against Rottboellia cochinchinensis in Corchorus olitorius plots assessed as major weed growth at 0.33 kg a.i/ha after 2 weeks; format: functional
Synedrella nodiflora [33] = assay: Herbicidal activity against Synedrella nodiflora in Corchorus olitorius plots assessed as weed cover at 0.66 kg a.i/ha after 2 weeks (reference value: 81.7 +/- 0.43 %); format: functional

CCC(CC)Nc1c([N+](=O)[O-])cc(C)c(C)c1[N+](=O)[O-] [PENDIMETHALIN]
Activity (Calopogonium mucunoides [1]): 39.2% | Activity (Corchorus olitorius [2]): 41.7% | Activity (Abelmoschus esculentus [3]): 42.1% | Activity (Ageratum conyzoides [4]): 39.2% | Activity (Euphorbia heterophylla [5]): 51.7% | Activity (Abelmoschus esculentus [6]): 39.2% | Activity (Abelmoschus esculentus [7]): 39.9% | Activity (Corchorus olitorius [8]): 84.7% | Activity (Euphorbia heterophylla [9]): 47.9% | Activity (Calopogonium mucunoides [10]): 100% | Activity (Ageratum conyzoides [11]): 31 /m2 | Activity (Euphorbia heterophylla [12]): 47.9% | Activity (Calopogonium mucunoides [13]): 82.4% | Activity (Commelina diffusa [14]): 63.3% | Activity (Synedrella nodiflora [15]): 39.2% | Activity [16]: 31.7% | Activity (Calopogonium mucunoides [17]): 31 /m2 | Activity (Talinum fruticosum): 1 /m2 | Activity (Synedrella nodiflora [18]): 39.2% | Activity (Asteraceae): 100% | Activity (Abelmoschus esculentus [19]): 3.6 mm | Activity (Ageratum conyzoides [20]): 13.3% | Activity (Ageratum conyzoides [21]): 100% | Activity (Synedrella nodiflora [22]): 90% | Activity (Commelina diffusa [23]): 50.8% | Activity (Cyperus rotundus [24]): 47.9% | Activity (Cyperus rotundus [25]): 100% | Activity (Calopogonium mucunoides [26]): 1 /m2 | Activity (Euphorbia heterophylla [27]): 31 /m2 | Activity (Synedrella nodiflora [28]): 36.2% | Activity (Calopogonium mucunoides [29]): 63.3% | Activity (Calopogonium mucunoides [30]): 1 /m2 | Activity (Mimosa pudica): 56.8% | Activity (Chromolaena odorata): 33.3% | Activity [31]: 56.8% | Activity [32]: 31 /m2 | Activity (Synedrella nodiflora [33]): 51.7%
